Measured values as given in patent publication US7375220B2, “Method of treating diseases and conditions associated with an altered level of amyloid β peptides and new enolcarboxamide compounds” (Boehringer Ingelheim Vetmedica GmbH, priority 2004, dated 2008).

Experiments:
[1] = system: Aβ42; details: according to table 3 of WO 01/78721; cited from earlier work

SMILES | melting point [°C] | Aβ42 level [1]
CN1C(=O)C(C(=O)Nc2ccc(Cl)cc2)c2ccc3c(c2S1(=O)=O)CCCC3 (centres unmarked) [Example 13, 3,4,7,8,9,10-Hexahydro-2-methyl-3-oxo-2H-naphtho[2,1-e]-1,2-thiazine-4-(4-chloro)carboxanilide 1,1-dioxide] | 106 to 108 | 
O=C(Nc1ccccc1C(F)(F)F)C1C(=O)N(Cc2ccc(F)cc2)S(=O)(=O)c2ccc(Cl)cc21 (centres unmarked) [Example 14, 6-Chloro-3,4-dihydro-2-(4-fluorobenzyl)-3-oxo-2H-1,2-benzothiazine-4-(2-trifluoromethyl)carboxanilide 1,1-dioxide] | 198 to 199 | 
O=C(Nc1cccc(C(F)(F)F)c1)C1C(=O)N(Cc2ccc(F)cc2)S(=O)(=O)c2ccc(Cl)cc21 (centres unmarked) [Example 15, 6-Chloro-3,4-dihydro-2-(4-fluorobenzyl)-3-oxo-2H-1,2-benzothiazine-4-(3-trifluoromethyl)carboxanilide 1,1-dioxide] | 183 to 184 | 
Cc1cc(NC(=O)C2=C(O)c3ccccc3S(=O)(=O)N2C)no1 [isoxicam] |  | do not lower or even increase the Aβ42 level
CN1C(C(=O)Nc2ccccn2)=C(O)c2ccccc2S1(=O)=O [piroxicam] |  | do not lower or even increase the Aβ42 level
